These results are taken from US9939427B2, “Method for evaluating the scent performance of perfumes or perfume mixtures” (Symrise AG, priority 2013, dated 2018).

Holding throughout (assay type): cell-based
Assay [1] addresses T1, OR4E2 (Homo sapiens, UniProt Q8NGC2).
T1 construct: specific primers, which amplify the complete open reading frame; expressed in transfected cells; host or cells: HEK293
T1 sequence (Q8NGC2 1-313): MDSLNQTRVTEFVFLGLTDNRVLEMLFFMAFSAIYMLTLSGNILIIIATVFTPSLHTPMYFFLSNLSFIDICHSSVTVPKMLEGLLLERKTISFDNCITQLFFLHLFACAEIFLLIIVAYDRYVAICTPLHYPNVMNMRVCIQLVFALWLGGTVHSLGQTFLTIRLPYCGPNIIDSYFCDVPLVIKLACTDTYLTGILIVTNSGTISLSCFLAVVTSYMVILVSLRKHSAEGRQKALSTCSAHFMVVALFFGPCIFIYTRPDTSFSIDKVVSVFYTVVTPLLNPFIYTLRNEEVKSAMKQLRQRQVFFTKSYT
Kind of assay: Ca-imaging of OR4E2-transfected HEK293 cells. The arrangement: key: ▪: 18 olfactory receptors responded to 32 odorants in related with specific anosmia. The settings on record: individual odorant 200 μM, significant response p<0.05. The procedure:
(§1) HEK293 cells were cultivated in Petri dishes (Ø35 mm) as previously described (Benbernou et al. 2007). We grow up HEK293 cells in culture medium containing standard DMEM with 10% heat-inactivated fetal bovine serum, 2 mM L-glutamine, 100 units/ml penicillin, and 100 units/ml streptomycin in a humidified atmosphere (37° C., 5% CO2). After 2-3 days, the transfection process was carried out, whereby the cell culture was 70-80% confluent. The calciumphosphate method was applied to transfect DNA plasmid transiently in HEK293 cells in case of Ca-imaging method.
(§2) Calcium cations and phosphate anions created crystal precipitations coupled with DNA which could invade into the cells through endocytosis. Cells were transiently transfected with plasmid DNA which consists of pCI expression vector and PCR-amplified full-length cDNA of olfactory receptors candidates, and also Gα15, RTP1, Myr-Ric8A, HSC70, and m-Cherry as cofactors. The precipitation could be created after 15-20 min, with dropping the transfection solution on HEK293 cells. Before measuring by Ca-imaging cells were incubated 48-60 hours at 370 C, 5% CO2. […]
(§3) Calcium imaging of the transfected HEK293 cells was done by using chambers determinate an inverted microscope (Olympus; IX70) using a 10× objective (CPIanFL N Olympus). Fluorescence emission was determined every 4 s by using a CCD camera (Charge Coupled Device, C9100 Hamamatsu). […] Odorants were manually monitored to drop each 4-5 s to transfected cells. […]
(§4) In experiments, Fura-2 Acetoxymethylester (Fura-2/AM) was applied. […] According to this feature, the analysis of 340/380 nm excitation ratio for Fura-2 allows to quantify intracellular calcium levels. […]
(§5) Ringer's solution was used for washing cells between measuring by two different odorants. Positive response was determined by the timing of the response, the strength of the response (more than twofold higher than the noise amplitude of the baseline), and the shape of the response curve (sharp rise in curve with gradual recovery). […]

Assay [2] deals with T2, OR4K2 (Homo sapiens, UniProt Q8NGD2).
T2 construct: specific primers, which amplify the complete open reading frame; expressed in transfected cells; host or cells: HEK293
T2 sequence (Q8NGD2 1-314): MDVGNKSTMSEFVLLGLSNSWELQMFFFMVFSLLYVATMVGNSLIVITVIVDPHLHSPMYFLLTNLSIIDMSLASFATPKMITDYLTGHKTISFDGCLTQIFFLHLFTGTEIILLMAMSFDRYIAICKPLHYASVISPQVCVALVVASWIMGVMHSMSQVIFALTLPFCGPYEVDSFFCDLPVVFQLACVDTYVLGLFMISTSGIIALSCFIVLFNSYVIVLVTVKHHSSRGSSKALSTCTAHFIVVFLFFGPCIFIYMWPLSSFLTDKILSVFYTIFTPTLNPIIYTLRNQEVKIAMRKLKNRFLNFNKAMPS
Kind of assay: Ca-imaging of OR4K2-transfected HEK293 cells. The settings on record: HEK293 cells, individual odorant 200 μM, significant response p<0.05. The arrangement: key to OR4K2 responded to odorant: ▪: 18 olfactory receptors responded to 32 odorants in related with specific anosmia. The procedure:
as §1
(§6) Calcium cations and phosphate anions created crystal precipitations coupled with DNA which could invade into the cells through endocytosis. Cells were transiently transfected with plasmid DNA which consists of pCI expression vector and PCR-amplified full-length cDNA of olfactory receptors candidates, and also Gα15, RTP1, Myr-Ric8A, HSC70, and m-Cherry as cofactors. The precipitation could be created after 15-20 min, with dropping the transfection solution on HEK293 cells. Before measuring by Ca-imaging cells were incubated 48-60 hours at 370 C, 5% CO2. Cationic liposome-mediated transfection method was applied to transfect DNA plasmid transiently in HANA3A cells in case of CRE-Luciferase and CRE-SEAP assays.
(§7) Calcium imaging of the transfected HEK293 cells was done by using chambers determinate an inverted microscope (Olympus; IX70) using a 10× objective (CPIanFL N Olympus). Fluorescence emission was determined every 4 s by using a CCD camera (Charge Coupled Device, C9100 Hamamatsu). The capillary tube which was responsible to supply odorants was generated closely above the cells. The columns filled with odorants, DMSO and ATP. Odorants were manually monitored to drop each 4-5 s to transfected cells. Solutions with drop wise form spread on HEK293 cells in 35 mm dishes.
In experiments, Fura-2 Acetoxymethylester (Fura-2/AM) was applied. The non-polar Fura2/AM is fluorescent but not yet calcium-sensitive. Once diffuses into cell plasma, Fura-2/AM is hydrolyzed to Fura-2 which is calcium-sensitive and functions as Ca2+ chelator. Regardless of the presence of calcium, Fura-2 emits at the wavelength of 510 nm. Once Fura-2 binds to free intracellular Ca2+ in cell plasma, its ratio of excitation at wavelengths of 340 nm and 380 nm is changed and correlated to the amount of intracellular Ca2+. According to this feature, the analysis of 340/380 nm excitation ratio for Fura-2 allows to quantify intracellular calcium levels.
In preparation for Ca-imaging measurements, transfected HEK293 cells were added 3 it Fura2/AM (3 μM) and incubated 30-45 min at 370 C, 5% CO2. After this step, experiments were carried out in a dark condition (Fura-2 is light-sensitive). After the incubation, medium of cell culture was replaced with 2 ml Ringer's solution.
Odorants were freshly prepared with DMSO as 1 M stocks solutions. Six mixtures (200 μM each chemical) were applied to cells sequentially (20 s each mixture/30 s Ringer). Those ORs tested with single odorants that had generated a response to odorant mixture group previously. Odorants were prepared in 100-200 μM concentration.
as §5

Assay [3] concerns the target T3, OR52B4 (Homo sapiens, UniProt Q8NGK2).
T3 construct: specific primers, which amplify the complete open reading frame; expressed in transfected cells; host or cells: HEK293
T3 sequence (Q8NGK2 1-314): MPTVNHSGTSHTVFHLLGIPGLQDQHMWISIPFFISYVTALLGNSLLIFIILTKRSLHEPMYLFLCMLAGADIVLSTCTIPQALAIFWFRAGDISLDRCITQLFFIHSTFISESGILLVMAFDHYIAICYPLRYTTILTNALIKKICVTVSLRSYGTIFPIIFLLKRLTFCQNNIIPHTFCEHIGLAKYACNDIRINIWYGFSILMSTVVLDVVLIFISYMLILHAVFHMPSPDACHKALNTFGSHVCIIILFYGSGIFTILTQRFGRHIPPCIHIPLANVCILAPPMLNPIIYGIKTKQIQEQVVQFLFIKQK
Kind of assay: Ca-imaging of OR52B4-transfected HEK293 cells. The arrangement: key: ▪: 18 olfactory receptors responded to 32 odorants in related with specific anosmia. The settings on record: individual odorant 200 μM, significant response p<0.05. How it is done: as §1, §6, §7
In experiments, Fura-2 Acetoxymethylester (Fura-2/AM) was applied. The non-polar Fura2/AM is fluorescent but not yet calcium-sensitive. Once diffuses into cell plasma, Fura-2/AM is hydrolyzed to Fura-2 which is calcium-sensitive and functions as Ca2+ chelator. Regardless of the presence of calcium, Fura-2 emits at the wavelength of 510 nm. […] According to this feature, the analysis of 340/380 nm excitation ratio for Fura-2 allows to quantify intracellular calcium levels. […]
as §5

The target in assay [4] is T4, OR4P4 (Homo sapiens, UniProt Q8NGL7).
T4 construct: specific primers, which amplify the complete open reading frame; expressed in transfected cells; host or cells: HEK293
T4 sequence (Q8NGL7 1-312): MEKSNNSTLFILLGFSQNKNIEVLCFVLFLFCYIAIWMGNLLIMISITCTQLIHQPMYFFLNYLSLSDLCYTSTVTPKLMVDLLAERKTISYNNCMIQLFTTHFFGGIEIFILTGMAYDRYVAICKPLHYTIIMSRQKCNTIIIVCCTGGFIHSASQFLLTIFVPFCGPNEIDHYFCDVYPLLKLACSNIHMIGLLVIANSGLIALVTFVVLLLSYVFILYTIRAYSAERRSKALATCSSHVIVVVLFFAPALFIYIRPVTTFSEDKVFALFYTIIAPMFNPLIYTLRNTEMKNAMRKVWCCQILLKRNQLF
Kind of assay: Ca-imaging of OR4P4-transfected HEK293 cells. Set-up: key to OR4P4 responded to odorant: ▪: 18 olfactory receptors responded to 32 odorants in related with specific anosmia. The conditions noted are these: for OR4P4 responded to odorant: HEK293 cells, individual odorant 200 μM, significant response p<0.05. How it is done: as §1, §2, §3, §4, §5

Assay [5] addresses T5, OR12D2 (Homo sapiens, UniProt P58182).
T5 construct: specific primers, which amplify the complete open reading frame; expressed in transfected cells; host or cells: HEK293
T5 sequence (P58182 1-307): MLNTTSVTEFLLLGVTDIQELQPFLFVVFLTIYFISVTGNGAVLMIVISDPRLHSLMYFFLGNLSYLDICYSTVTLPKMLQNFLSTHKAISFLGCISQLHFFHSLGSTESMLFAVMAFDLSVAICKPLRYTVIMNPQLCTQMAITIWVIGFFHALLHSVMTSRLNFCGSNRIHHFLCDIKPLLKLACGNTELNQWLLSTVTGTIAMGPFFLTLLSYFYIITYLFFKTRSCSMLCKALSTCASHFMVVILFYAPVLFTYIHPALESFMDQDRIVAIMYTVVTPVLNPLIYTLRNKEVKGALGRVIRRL
The assay can be described thus: Ca-imaging of OR12D2-transfected HEK293 cells. Set-up: key: ▪: 18 olfactory receptors responded to 32 odorants in related with specific anosmia. The settings on record: individual odorant 200 μM, significant response p<0.05.
Protocol: In preparation for Ca-imaging measurements, transfected HEK293 cells were added 3 it Fura2/AM (3 μM) and incubated 30-45 min at 370 C, 5% CO2. After this step, experiments were carried out in a dark condition (Fura-2 is light-sensitive). […]

Assay [6] deals with T6, OR4K5 (Homo sapiens, UniProt Q8NGD3).
T6 construct: specific primers, which amplify the complete open reading frame; expressed in transfected cells; host or cells: HEK293
T6 sequence (Q8NGD3 1-323): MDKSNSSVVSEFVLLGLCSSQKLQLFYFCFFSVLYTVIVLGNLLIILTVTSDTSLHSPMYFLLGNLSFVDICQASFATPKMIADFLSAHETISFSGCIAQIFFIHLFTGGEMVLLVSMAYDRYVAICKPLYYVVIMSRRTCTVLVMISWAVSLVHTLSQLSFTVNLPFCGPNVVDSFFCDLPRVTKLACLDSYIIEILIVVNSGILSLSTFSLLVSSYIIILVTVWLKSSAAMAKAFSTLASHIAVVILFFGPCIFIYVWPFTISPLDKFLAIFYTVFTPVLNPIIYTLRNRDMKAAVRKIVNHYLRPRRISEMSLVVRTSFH
Kind of assay: Ca-imaging of OR4K5-transfected HEK293 cells. The arrangement: key to OR4K5 responded to odorant: ▪: 18 olfactory receptors responded to 32 odorants in related with specific anosmia. The settings on record: HEK293 cells, individual odorant 200 μM, significant response p<0.05. How it is done: as §1, §2, §3, §4, §5

`CC(C)=CCC/C(C)=C/CO` [Graniol, Geraniol]: the “OR4E2 responded to odorant” value in assay [1] is “▪”. Turning to `O=CCCc1ccccc1` [3-phenyl propyl aldehyde, 3-Phenylpropionaldehyde], the “OR4E2 responded to odorant” value in assay [1] is listed as “▪”. Moreover, in assay [2], the “OR4K2 responded to odorant” value is reported as “▪”. For `C=CC(=O)CCCCC` [1-Octan-3-One, 1-Octen-3-one], the “OR52B4 responded to odorant” value in assay [3] is recorded as “▪”. Consider `CCCCCC(=O)O` [N-Hexanoic acid, NHexanoic acid], for which, in assay [4], the “OR4P4 responded to odorant” value is given as “▪”. `CCC(=O)O` [Propionic acid]: in assay [5], the “OR12D2 responded to odorant” value is reported as “▪”.

For the molecule `CC1CCCC2(C)CCCCC12O` (centres unmarked) [Geosmin], the “OR52B4 responded to odorant” value in assay [3] was “▪”. Turning to Globalide, the “OR4P4 responded to odorant” value in assay [4] is on record as “▪”. In addition, the “Response of OR4P4 to odorant, in words” value in assay [4] (single odorants 200 μM) is recorded as “responded”.

Take `CC(C)C=O` [Isobutyr aldehyde, Isobutyraldehyde]: the “OR4K2 responded to odorant” value in assay [2] is reported as “▪”.

Regarding `CC(=O)O` [Acetic acid], the “OR12D2 responded to odorant” value in assay [5] is “▪”. Consider `CC/C(=C\CC1CC=C(C)C1(C)C)CO` (centres unmarked) [Sandranol], for which the “OR52B4 responded to odorant” value in assay [3] is recorded as “▪”. For the molecule `COc1c(Cl)cc(Cl)cc1Cl` [2-4-6 trichoroanisole, 2-4-6-Trichloroanisole], the “OR52B4 responded to odorant” value in assay [3] is “▪”. Moreover, the “OR4E2 responded to odorant” value in assay [1] is “▪”. Take `CO[C@]1(C)CC[C@@]23C[C@@H]1C(C)(C)[C@@H]2CC[C@H]3C` [Cedramber]: the “OR4K5 responded to odorant” value in assay [6] was “▪”.

For the molecule `O=Cc1ccccc1` [Banzaldehyde, Benzaldehyde], the “OR4K2 responded to odorant” value in assay [2] is on record as “▪”. For `CC(C)CC(=O)O` [Isovaleric acid], in assay [5], the “OR12D2 responded to odorant” value was “▪”.
